The values below come from patent US20080020048A1, “Treatment of Respiratory Disease” (priority 2004, published 2008).

The nature of data set [1]: Glycopyrrolate therapy, summary of findings of the studies. It is filed as in vivo. The source says:
Further, it is apparent that different dosages of the drug, without side-effects, are essentially equivalent in effect. […] This makes the medicament particularly suitable for the treatment of bronchospasm, or as a rescue medication.

Data set [2] concerns asthma. The note with it: single administration of metered-dose aerosol; cited from earlier work.
Data set [3] deals with asthma. To be noted: inhaled; cited from earlier work.

As for `C[N+]1(C)CCC(OC(=O)C(O)(c2ccccc2)C2CCCC2)C1` (centres unmarked) [glycopyrrolate], the Onset of bronchodilation result in data set [1] (in vivo) is “high and immediate”. Further, in data set [1] (problems associated with anti-muscarinics), the Tachycardia result is “apparently absent”. Also, the Period of bronchodilation in the data set with asthma [2] was 12 h. Further, in the data set on asthma [3], the “Duration of effective treatment” value is listed as “up to 12 hours” and the “Duration of effective treatment, maximal” value is reported as “up to 8 hours”.
